Values joined by “and” are separate entries in the source; they are usually repeats but may differ in a detail not shown here. Equal values may be shown once. Toxic doses and inconclusive results are not listed.
Tested on: CD2F1 mice, L1210 leukemia ip, survival T/C
Assay: NCI In Vivo Anticancer Drug Screen. Data for tumor model L1210 Leukemia (intraperitoneal) in CD2F1 (CDF1) mice
Details: higher = longer survival
In short: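 In this screen, transplantable tumors were grown in mice given either the compound or its vehicle. Results were expressed as the treated measurement relative to the control measurement.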

Compound: S=c1nc[nH]c2nc[nH]c12
- T/C (endpoint: mean survival time, dose: 8.0 mg/kg/injection, schedule: Q03HX024 (ip), vehicle: alkali diluted with water): 155 % of control
- T/C (endpoint: mean survival time, dose: 9.38 mg/kg/injection, schedule: Q01DX009 (ip), vehicle: alkali diluted with saline): 119 % of control
- T/C (endpoint: mean survival time, dose: 10.0 mg/kg/injection, schedule: Q01DX005 (ip), vehicle: alkali diluted with saline): 113 % of control
- T/C (endpoint: mean survival time, dose: 10.0 mg/kg/injection, schedule: Q01DX005 (ip), vehicle: alkali diluted with water): 98 % of control
- T/C (endpoint: mean survival time, dose: 16.0 mg/kg/injection, schedule: Q03HX024 (ip), vehicle: alkali diluted with water): 160 % of control
- T/C (endpoint: mean survival time, dose: 18.8 mg/kg/injection, schedule: Q01DX009 (ip), vehicle: alkali diluted with saline): 113 % of control
- T/C (endpoint: mean survival time, dose: 19.4 mg/kg/injection, schedule: Q04DX003 (ip), vehicle: alkali diluted with saline): 101 % of control
- T/C (endpoint: mean survival time, dose: 20.0 mg/kg/injection, schedule: Q01DX007 (ip), vehicle: saline): 116 % of control
- T/C (endpoint: mean survival time, dose: 20.0 mg/kg/injection, schedule: Q01DX009 (ip), vehicle: alkali diluted with water): 114 % of control
- T/C (endpoint: mean survival time, dose: 20.0 mg/kg/injection, schedule: Q01DX009 (ip), vehicle: other): 121 % of control
- T/C (endpoint: mean survival time, dose: 20.0 mg/kg/injection, schedule: Q01DX009 (ip), vehicle: saline): 120 % of control
- T/C (endpoint: mean survival time, dose: 20.0 mg/kg/injection, schedule: Q04DX002 (ip), vehicle: saline): 120 % of control
- T/C (endpoint: mean survival time, dose: 28.13 mg/kg/injection, schedule: Q04DX003 (ip), vehicle: alkali diluted with saline): 95 % of control
- T/C (endpoint: mean survival time, dose: 30.0 mg/kg/injection, schedule: Q## X006 (ip), vehicle: saline): 101 % of control
- T/C (endpoint: mean survival time, dose: 37.5 mg/kg/injection, schedule: Q01DX009 (ip), vehicle: alkali diluted with saline): 122 % of control
- T/C (endpoint: mean survival time, dose: 40.0 mg/kg/injection, schedule: Q01DX005 (ip), vehicle: saline): 150 % of control
- T/C (endpoint: mean survival time, dose: 40.0 mg/kg/injection, schedule: Q01DX005 (ip), vehicle: sodium bicarbonate): 116 % of control
- T/C (endpoint: mean survival time, dose: 40.0 mg/kg/injection, schedule: Q01DX009 (ip), vehicle: other): 166 % of control and 167 % of control
- T/C (endpoint: mean survival time, dose: 40.0 mg/kg/injection, schedule: Q03DX003 (ip), vehicle: saline): 113 % of control
- T/C (endpoint: mean survival time, dose: 40.0 mg/kg/injection, schedule: Q04DX003 (ip), vehicle: saline): 116 % of control
- T/C (endpoint: mean survival time, dose: 60.0 mg/kg/injection, schedule: Q## X009 (ip), vehicle: saline): 122 % of control
- T/C (endpoint: mean survival time, dose: 66.0 mg/kg/injection, schedule: Q04DX003 (ip), vehicle: saline): 163 % of control
- T/C (endpoint: mean survival time, dose: 75.0 mg/kg/injection, schedule: Q01DX009 (ip), vehicle: alkali diluted with saline): 156 % of control and 170 % of control
- T/C (endpoint: mean survival time, dose: 80.0 mg/kg/injection, schedule: Q01DX001 (ip), vehicle: alkali diluted with water): 120 % of control
- T/C (endpoint: mean survival time, dose: 80.0 mg/kg/injection, schedule: Q01DX005 (ip), vehicle: saline with Tween-80): 168 % of control
- T/C (endpoint: mean survival time, dose: 80.0 mg/kg/injection, schedule: Q01DX005 (ip), vehicle: saline): 170 % of control and 172 % of control
- T/C (endpoint: mean survival time, dose: 80.0 mg/kg/injection, schedule: Q01DX005 (ip), vehicle: sodium bicarbonate): 157 % of control
- T/C (endpoint: mean survival time, dose: 80.0 mg/kg/injection, schedule: Q01DX007 (ip), vehicle: saline): 158 % of control
- T/C (endpoint: mean survival time, dose: 80.0 mg/kg/injection, schedule: Q01DX009 (ip), vehicle: alkali diluted with saline): 150 % of control
- T/C (endpoint: mean survival time, dose: 80.0 mg/kg/injection, schedule: Q01DX009 (ip), vehicle: alkali diluted with water): 150 % of control and 158 % of control
- T/C (endpoint: mean survival time, dose: 80.0 mg/kg/injection, schedule: Q01DX009 (ip), vehicle: other): 156 % of control
- T/C (endpoint: mean survival time, dose: 80.0 mg/kg/injection, schedule: Q01DX009 (ip), vehicle: saline): 156 % of control
- T/C (endpoint: mean survival time, dose: 80.0 mg/kg/injection, schedule: Q04DX002 (ip), vehicle: saline): 150 % of control
- T/C (endpoint: mean survival time, dose: 90.0 mg/kg/injection, schedule: Q## X002 (ip), vehicle: saline): 153 % of control
- T/C (endpoint: mean survival time, dose: 125.0 mg/kg/injection, schedule: Q01DX001 (ip), vehicle: alkali diluted with saline): 120 % of control
- T/C (endpoint: mean survival time, dose: 150.0 mg/kg/injection, schedule: Q01DX009 (ip), vehicle: alkali diluted with saline): 113 % of control and 95 % of control
- T/C (endpoint: mean survival time, dose: 150.0 mg/kg/injection, schedule: Q04DX003 (ip), vehicle: alkali diluted with saline): 155 % of control
- T/C (endpoint: mean survival time, dose: 160.0 mg/kg/injection, schedule: Q01DX001 (ip), vehicle: alkali diluted with water): 152 % of control
- T/C (endpoint: mean survival time, dose: 160.0 mg/kg/injection, schedule: Q01DX005 (ip), vehicle: saline with Tween-80): 175 % of control
- T/C (endpoint: mean survival time, dose: 160.0 mg/kg/injection, schedule: Q01DX005 (ip), vehicle: saline): 171 % of control
- T/C (endpoint: mean survival time, dose: 160.0 mg/kg/injection, schedule: Q01DX009 (ip), vehicle: alkali diluted with saline): 101 % of control
- T/C (endpoint: mean survival time, dose: 160.0 mg/kg/injection, schedule: Q01DX009 (ip), vehicle: alkali diluted with water): 114 % of control and 88 % of control
- T/C (endpoint: mean survival time, dose: 160.0 mg/kg/injection, schedule: Q01DX009 (ip), vehicle: other): 87 % of control
- T/C (endpoint: mean survival time, dose: 165.0 mg/kg/injection, schedule: Q01DX001 (ip), vehicle: alkali diluted with saline): 122 % of control
- T/C (endpoint: mean survival time, dose: 180.0 mg/kg/injection, schedule: Q## X002 (ip), vehicle: saline): 164 % of control
- T/C (endpoint: mean survival time, dose: 180.0 mg/kg/injection, schedule: Q## X009 (ip), vehicle: saline): 154 % of control
- T/C (endpoint: mean survival time, dose: 270.0 mg/kg/injection, schedule: Q## X006 (ip), vehicle: saline): 150 % of control
- T/C (endpoint: mean survival time, dose: 270.0 mg/kg/injection, schedule: Q## X009 (ip), vehicle: saline): 153 % of control
- T/C (endpoint: median survival time, dose: 15.6 mg/kg/injection, schedule: Q01DX009 (ip), vehicle: alkali diluted with saline): 116 % of control
- T/C (endpoint: median survival time, dose: 18.0 mg/kg/injection, schedule: Q01DX009 (ip), vehicle: alkali diluted with saline): 118 % of control
- T/C (endpoint: median survival time, dose: 20.0 mg/kg/injection, schedule: Q01DX005 (ip), vehicle: water): 187 % of control
- T/C (endpoint: median survival time, dose: 25.0 mg/kg/injection, schedule: Q01DX009 (ip), vehicle: Klucel (hydroxypropylcellulose) (HPC)): 182 % of control
- T/C (endpoint: median survival time, dose: 25.0 mg/kg/injection, schedule: Q01DX009 (ip), vehicle: alkali diluted with water): 122 % of control
- T/C (endpoint: median survival time, dose: 25.9 mg/kg/injection, schedule: Q01DX009 (ip), vehicle: alkali diluted with saline): 124 % of control
- T/C (endpoint: median survival time, dose: 26.0 mg/kg/injection, schedule: Q01DX009 (ip), vehicle: Klucel (hydroxypropylcellulose) (HPC)): 170 % of control
- T/C (endpoint: median survival time, dose: 30.0 mg/kg/injection, schedule: Q01DX009 (ip), vehicle: alkali diluted with saline): 121 % of control
- T/C (endpoint: median survival time, dose: 37.5 mg/kg/injection, schedule: Q04DX003 (ip), vehicle: Klucel (hydroxypropylcellulose) (HPC)): 154 % of control
- T/C (endpoint: median survival time, dose: 40.0 mg/kg/injection, schedule: Q01DX005 (ip), vehicle: water): 310 % of control
- T/C (endpoint: median survival time, dose: 40.0 mg/kg/injection, schedule: Q01DX009 (ip), vehicle: Klucel (hydroxypropylcellulose) (HPC)): 159 % of control
- T/C (endpoint: median survival time, dose: 40.0 mg/kg/injection, schedule: Q01DX009 (ip), vehicle: alkali diluted with saline): 123 % of control
- T/C (endpoint: median survival time, dose: 50.0 mg/kg/injection, schedule: Q01DX009 (ip), vehicle: Klucel (hydroxypropylcellulose) (HPC)): 259 % of control
- T/C (endpoint: median survival time, dose: 50.0 mg/kg/injection, schedule: Q01DX009 (ip), vehicle: alkali diluted with water): 164 % of control
- T/C (endpoint: median survival time, dose: 50.0 mg/kg/injection, schedule: Q04DX003 (ip), vehicle: alkali diluted with saline): 101 % of control
- T/C (endpoint: median survival time, dose: 60.0 mg/kg/injection, schedule: Q01DX009 (ip), vehicle: alkali diluted with saline): 173 % of control
- T/C (endpoint: median survival time, dose: 60.0 mg/kg/injection, schedule: Q01DX009 (ip), vehicle: water): 159 % of control
- T/C (endpoint: median survival time, dose: 70.0 mg/kg/injection, schedule: Q01DX009 (ip), vehicle: alkali diluted with saline): 151 % of control and 158 % of control
- T/C (endpoint: median survival time, dose: 72.0 mg/kg/injection, schedule: Q01DX009 (ip), vehicle: alkali diluted with saline): 150 % of control
- T/C (endpoint: median survival time, dose: 75.0 mg/kg/injection, schedule: Q04DX003 (ip), vehicle: Klucel (hydroxypropylcellulose) (HPC)): 176 % of control
- T/C (endpoint: median survival time, dose: 78.0 mg/kg/injection, schedule: Q04DX003 (ip), vehicle: other): 120 % of control
- T/C (endpoint: median survival time, dose: 80.0 mg/kg/injection, schedule: Q01DX005 (ip), vehicle: Klucel (hydroxypropylcellulose) (HPC)): 158 % of control
- T/C (endpoint: median survival time, dose: 80.0 mg/kg/injection, schedule: Q01DX005 (ip), vehicle: water): 164 % of control
- T/C (endpoint: median survival time, dose: 80.0 mg/kg/injection, schedule: Q01DX009 (ip), vehicle: water): 158 % of control
- T/C (endpoint: median survival time, dose: 83.3 mg/kg/injection, schedule: Q01DX009 (ip), vehicle: alkali diluted with saline): 160 % of control
- T/C (endpoint: median survival time, dose: 100.0 mg/kg/injection, schedule: Q01DX001 (ip), vehicle: alkali diluted with saline): 117 % of control and 122 % of control
- T/C (endpoint: median survival time, dose: 100.0 mg/kg/injection, schedule: Q01DX001 (ip), vehicle: alkali diluted with water): 157 % of control
- T/C (endpoint: median survival time, dose: 100.0 mg/kg/injection, schedule: Q01DX005 (ip), vehicle: alkali diluted with water): 172 % of control
- T/C (endpoint: median survival time, dose: 100.0 mg/kg/injection, schedule: Q01DX009 (ip), vehicle: Klucel (hydroxypropylcellulose) (HPC)): 211 % of control
- T/C (endpoint: median survival time, dose: 100.0 mg/kg/injection, schedule: Q04DX003 (ip), vehicle: alkali diluted with saline): 116 % of control
- T/C (endpoint: median survival time, dose: 120.0 mg/kg/injection, schedule: Q01DX009 (ip), vehicle: alkali diluted with saline): 154 % of control
- T/C (endpoint: median survival time, dose: 150.0 mg/kg/injection, schedule: Q04DX003 (ip), vehicle: Klucel (hydroxypropylcellulose) (HPC)): 178 % of control
- T/C (endpoint: median survival time, dose: 160.0 mg/kg/injection, schedule: Q01DX005 (ip), vehicle: Klucel (hydroxypropylcellulose) (HPC)): 164 % of control
- T/C (endpoint: median survival time, dose: 200.0 mg/kg/injection, schedule: Q01DX005 (ip), vehicle: alkali diluted with water): 89 % of control
- T/C (endpoint: median survival time, dose: 200.0 mg/kg/injection, schedule: Q01DX009 (ip), vehicle: Klucel (hydroxypropylcellulose) (HPC)): 154 % of control
- T/C (endpoint: median survival time, dose: 200.0 mg/kg/injection, schedule: Q01DX009 (ip), vehicle: alkali diluted with water): 88 % of control
- T/C (endpoint: median survival time, dose: 200.0 mg/kg/injection, schedule: Q04DX003 (ip), vehicle: alkali diluted with saline): 155 % of control
- T/C (endpoint: median survival time, dose: 200.0 mg/kg/injection, schedule: Q04DX003 (ip), vehicle: other): 475 % of control
- T/C (endpoint: median survival time, dose: 400.0 mg/kg/injection, schedule: Q01DX009 (ip), vehicle: Klucel (hydroxypropylcellulose) (HPC)): 152 % of control
- T/C (endpoint: median survival time, dose: 600.0 mg/kg/injection, schedule: Q04DX003 (ip), vehicle: Klucel (hydroxypropylcellulose) (HPC)): 194 % of control

From PubChem BioAssay AID256 (DTP/NCI, 2004)
